Data taken from PubChem BioAssay AID1963437 (Molecular Pharmacology Branch, DTP, NCI, 2024).

Tested on: OVCAR-8 complex spheroid, growth inhibition
Assay: Anticancer human tumor OVCAR-8 cell line growth inhibition [Asc];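 note: spheroids exposed to agents for 7 days before readout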;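 for viability, T/C: percent viability relative to DMSO vehicle wells taken as 100%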
Details: for IC50: curve of first compound; for viability, T/C: stronger effect = lower value
Method: Multicellular complex tumor spheroid response to apoptosis pathway targeting inhibitors Alrizomadlin, Pelcitoclax, and Dasminapant in combination with a variety of drugs and investigational agents in selected tumor cell lines
The MDM2 inhibitor alrizomadlin, the Bcl-2/Bcl-xL inhibitor pelcitoclax, and the IAPs inhibitor dasminapant were evaluated both individually and in combination with standard of care and investigational anticancer small molecules within a complex spheroid model of solid tumors. . Complex spheroids include a stromal component modeled by human endothelial cells (HUVEC) and fibroblasts modeled by human mesenchymal stem cells (MSCs). The concentration ranges selected for each drug and investigational agent were based upon clinically achievable concentrations if the clinical Cmax of the agent was known.
Compounds. The drugs and investigational agents: alrizomadlin (APG-115; NSC831270), pelcitoclax (APG-1252; NSC835773), dasminapant (APG-1387;NSC834197), TAK-243 (NSC785004), copanlisib (NSC809693), olaparib (NSC753686), talazoparib (NSC767125), cobimetinib (NSC 768068), eltanexor (KPT-8602, NSC 794443), abemaciclib (NSC 768073), sotorasib (NSC818433), adagrasib (NSC 831453), MRTX-1133 (NSC 836407), Iadademestat (ORY1001, NSC 806812), and RMC-4630 (NSC839698), were obtained from the NCI Developmental Therapeutics Program Chemical Repository. The FDA-approved anticancer drug set is available from the Developmental Therapeutics Program at https://dtp.cancer.gov/organization/dscb/obtaining/available plates.htm. […] The stock solutions were prepared in dimethyl sulfoxide (DMSO, Sigma-Aldrich, St. Louis, MO, cat. D2650) at 800-fold the tested concentration and stored at -70 degrees C prior to their use. All drugs and investigational agents were tested over a range starting from a high concentration at or near the clinical Cmax and decreasing in half-log increments. If the clinical Cmax for an agent had not been determined, the highest concentration tested was 10 microM.
The patient-derived cancer (PDC) cell lines include five colon adenocarcinomas: 186277-243-T-J2-PDC, 616215-338-R-J1-PDC, 439559-082-T-J2-PDC, 463943-066-T-J2-PDC, and 519858-162-T-J1-PDC; three pancreatic carcinomas: 323965-272-R-J2-PDC, 521955-158-R6-J3-PDC, and 521955-158-R2-J5-PDC; two uterine sarcomas: 327498-152-R-J2-PDC and 993429-296-R-J1-PDC; two rhabdomyosarcomas: 755483-174-R-J1-PDC and 772245-204-R-J1-PDC; two soft tissue sarcomas: 126254-015-R-J1-PDC and 494315-158-R-J1-PDC; two malignant fibrous histiocytomas: 317291-083-R-J1-PDC and 596521-263-R-J1-PDC; two breast carcinomas: 171881-019-R-J1-PDC and 885512-296-R-J2-PDC; and one ovarian carcinoma: 6556581-035-R-J-PDC were obtained from the NCI PDMR, (https://pdmr.cancer.gov). The established cell lines HSSY-2 synovial sarcoma (RRID:CVCL 8719), SYO-1 synovial sarcoma (RRID:CVCL_7146), MPNST malignant peripheral neural sheath tumor were obtained from the Sloan Kettering Institute. The following established cell lines were purchased from the American Type Culture Collection (ATCC, Manassas, VA), Sor the received from the NCI repository:, PANC-1 pancreatic carcinoma (CRL-1469, RRID:CVCL_0480), OVCAR-5 ovarian carcinoma (RRID:CVCL_1628), OVCAR-8 ovarian carcinoma (RRID:CVCL_1629), , MCF-7 breast carcinoma (CRL-12584, RRID:CVCL_0031), MDA-MB-231 breast carcinoma (CRL-12532, RRID:CVCL_0062), NCI-H1876 small cell lung carcinoma (CRL-5902, RRID:CVCL_1503), NCI-H510A small cell lung carcinoma (HTB-184, RRID:CVCL_1565), NCI-H1417 (CRL-5869, RRID:CVCL_1469), and NCI-H196 small cell lung carcinoma (CRL-5823, RRID:CVCL_1509). Dr. Peter Houghton (Greehey Children's Cancer Research Institute, University of Texas Health Science Center, San Antonio, TX) provided Rh-18 rhabdomyosarcoma (RRID:CVCL_1659). Pooled donor human umbilical vein endothelial cells (HUVEC, Lonza, cat. CC-2519) and human mesenchymal stem cells (hMSC, Lonza, cat. PT-2501) were purchased from Lonza (Walkersville, MD).
Cell Culture. […]

`CNC(C)C(=O)NC1CN(S(=O)(=O)c2cccc(S(=O)(=O)N3CCC4CCC(C(=O)NC(c5ccccc5)c5ccccc5)N4C(=O)C(NC(=O)C(C)NC)C3)c2)CCC2CCC(C(=O)NC(c3ccccc3)c3ccccc3)N2C1=O` (centres undefined) + Cc1c(S(C)(=O)=O)c(-c2cc(F)cc(N3CCN(c4ccc(NS(=O)(=O)c5ccc(NC(CCN6CCC(C(=O)OCCCP(=O)(O)O)CC6)CSc6ccccc6)c(S(=O)(=O)C(F)(F)F)c5)cc4)CC3)c2)c(-c2ccc(Cl)cc2)n1C(C)C showed an IC50 (second compound 0.0316 µM) of over 1000 nM, an IC50 (second compound 0.1 µM) of over 1000 nM and an IC50 (second compound 0.316 µM) of over 1000 nM. The IC50 (second compound 1 µM) was over 1000 nM, the IC50 (second compound 3.16 µM) was over 1000 nM and the IC50 (second compound 10 µM) was over 1000 nM. For the same compound, the viability, T/C (second compound 0.0316 µM, first compound 0.00316 µM) was 97.5%, the viability, T/C (second compound 0.0316 µM, first compound 0.01 µM) was 94.6% and the viability, T/C (second compound 0.0316 µM, first compound 0.0316 µM) was 88.4%. It also gave a viability, T/C (second compound 0.0316 µM, first compound 0.1 µM) of 90.9%, a viability, T/C (second compound 0.0316 µM, first compound 0.316 µM) of 67.5% and a viability, T/C (second compound 0.0316 µM, first compound 1 µM) of 57.5%. It also gave a viability, T/C (second compound 0.1 µM, first compound 0.00316 µM) of 92.2%, a viability, T/C (second compound 0.1 µM, first compound 0.01 µM) of 84.5% and a viability, T/C (second compound 0.1 µM, first compound 0.0316 µM) of 80.8%. For the same compound, the viability, T/C (second compound 0.1 µM, first compound 0.1 µM) was 76.5%, the viability, T/C (second compound 0.1 µM, first compound 0.316 µM) was 64.5% and the viability, T/C (second compound 0.1 µM, first compound 1 µM) was 59.7%. The viability, T/C (second compound 0.316 µM, first compound 0.00316 µM) was 106%, the viability, T/C (second compound 0.316 µM, first compound 0.01 µM) was 79.2% and the viability, T/C (second compound 0.316 µM, first compound 0.0316 µM) was 86.8%. The viability, T/C (second compound 0.316 µM, first compound 0.1 µM) was 80.3%, the viability, T/C (second compound 0.316 µM, first compound 0.316 µM) was 58.9% and the viability, T/C (second compound 0.316 µM, first compound 1 µM) was 53.1%. It also gave a viability, T/C (second compound 1 µM, first compound 0.00316 µM) of 123%, a viability, T/C (second compound 1 µM, first compound 0.01 µM) of 97.1% and a viability, T/C (second compound 1 µM, first compound 0.0316 µM) of 86.8%. For the same compound, the viability, T/C (second compound 1 µM, first compound 0.1 µM) was 80.6%, the viability, T/C (second compound 1 µM, first compound 0.316 µM) was 59.4% and the viability, T/C (second compound 1 µM, first compound 1 µM) was 60.1%. The viability, T/C (second compound 3.16 µM, first compound 0.00316 µM) was 91.2%, the viability, T/C (second compound 3.16 µM, first compound 0.01 µM) was 86.8% and the viability, T/C (second compound 3.16 µM, first compound 0.0316 µM) was 84.7%. It also gave a viability, T/C (second compound 3.16 µM, first compound 0.1 µM) of 67.3%, a viability, T/C (second compound 3.16 µM, first compound 0.316 µM) of 57.5% and a viability, T/C (second compound 3.16 µM, first compound 1 µM) of 58.2%. For the same compound, the viability, T/C (second compound 10 µM, first compound 0.00316 µM) was 101%, the viability, T/C (second compound 10 µM, first compound 0.01 µM) was 78.2% and the viability, T/C (second compound 10 µM, first compound 0.0316 µM) was 78.9%. It also gave a viability, T/C (second compound 10 µM, first compound 0.1 µM) of 60.2%, a viability, T/C (second compound 10 µM, first compound 0.316 µM) of 52% and a viability, T/C (second compound 10 µM, first compound 1 µM) of 59.2%.

With `C=C(F)C(=O)N1CCN(c2nc(OCC3CCCN3C)nc3c2CCN(c2cccc4cccc(Cl)c24)C3)CC1CC#N` (centres undefined) + CCN1C(C(=O)NC23CCC(C(=O)O)(CC2)CC3)C(c2cccc(Cl)c2F)C2(C(=O)Nc3cc(Cl)ccc32)C12CCCCC2 the IC50 (second compound 0.00949 µM) was 2580 nM, the IC50 (second compound 0.03 µM) was 2500 nM and the IC50 (second compound 0.0949 µM) was 2720 nM. For the same compound, the IC50 (second compound 0.3 µM) was 2660 nM, the IC50 (second compound 0.949 µM) was 2490 nM and the IC50 (second compound 3 µM) was 2740 nM. For the same compound, the viability, T/C (second compound 0.00949 µM, first compound 0.0316 µM) was 115%, the viability, T/C (second compound 0.00949 µM, first compound 0.1 µM) was 86.5% and the viability, T/C (second compound 0.00949 µM, first compound 0.316 µM) was 103%. For the same compound, the viability, T/C (second compound 0.00949 µM, first compound 1 µM) was 119%, the viability, T/C (second compound 0.00949 µM, first compound 3.16 µM) was 38% and the viability, T/C (second compound 0.00949 µM, first compound 10 µM) was 1.01%. It also gave a viability, T/C (second compound 0.03 µM, first compound 0.0316 µM) of 96.6%, a viability, T/C (second compound 0.03 µM, first compound 0.1 µM) of 90.2% and a viability, T/C (second compound 0.03 µM, first compound 0.316 µM) of 92.3%. It also gave a viability, T/C (second compound 0.03 µM, first compound 1 µM) of 107%, a viability, T/C (second compound 0.03 µM, first compound 3.16 µM) of 38% and a viability, T/C (second compound 0.03 µM, first compound 10 µM) of 0.56%. It also gave a viability, T/C (second compound 0.0949 µM, first compound 0.0316 µM) of 93.1%, a viability, T/C (second compound 0.0949 µM, first compound 0.1 µM) of 98.6% and a viability, T/C (second compound 0.0949 µM, first compound 0.316 µM) of 93.9%. The viability, T/C (second compound 0.0949 µM, first compound 1 µM) was 116%, the viability, T/C (second compound 0.0949 µM, first compound 3.16 µM) was 42.3% and the viability, T/C (second compound 0.0949 µM, first compound 10 µM) was 0.29%. For the same compound, the viability, T/C (second compound 0.3 µM, first compound 0.0316 µM) was 83.8%, the viability, T/C (second compound 0.3 µM, first compound 0.1 µM) was 103% and the viability, T/C (second compound 0.3 µM, first compound 0.316 µM) was 105%. It also gave a viability, T/C (second compound 0.3 µM, first compound 1 µM) of 121%, a viability, T/C (second compound 0.3 µM, first compound 3.16 µM) of 40.6% and a viability, T/C (second compound 0.3 µM, first compound 10 µM) of 0.7%. It also gave a viability, T/C (second compound 0.949 µM, first compound 0.0316 µM) of 90.3%, a viability, T/C (second compound 0.949 µM, first compound 0.1 µM) of 96.8% and a viability, T/C (second compound 0.949 µM, first compound 0.316 µM) of 102%. For the same compound, the viability, T/C (second compound 0.949 µM, first compound 1 µM) was 126%, the viability, T/C (second compound 0.949 µM, first compound 3.16 µM) was 35.9% and the viability, T/C (second compound 0.949 µM, first compound 10 µM) was 1.05%. It also gave a viability, T/C (second compound 3 µM, first compound 0.0316 µM) of 111%, a viability, T/C (second compound 3 µM, first compound 0.1 µM) of 97.3% and a viability, T/C (second compound 3 µM, first compound 0.316 µM) of 140%. For the same compound, the viability, T/C (second compound 3 µM, first compound 1 µM) was 128%, the viability, T/C (second compound 3 µM, first compound 3.16 µM) was 40.3% and the viability, T/C (second compound 3 µM, first compound 10 µM) was 0.52%.
